Drawing on US20230108906A1, “SUBSTITUTED BICYCLIC AND TRICYCLIC UREAS AND AMIDES, ANALOGUES THEREOF, AND METHODS USING SAME” (Arbutus Biopharma Corporation, priority 2019, published 2023), this text covers EC50 for twelve molecules.

pEC50: −log10 of the molar value.

By pEC50 is commonly meant −log10 of the EC50, conventionally taken in molar units.

In the first experiment the test system is HBV rcDNA in HepDE19 cells. Nature of the experiment: HepDE19 assay with bDNA quantitation of HBV rcDNA. As to conditions: Hepatitis B virus, HepDE19, 168 h, inhibition of rcDNA formation in HepDE19 cells (HepG2 derived), Tet-free medium, 7 day incubation, Quantigene 2.0 bDNA readout, top concentration 25 μM; read-out: DE-19bDNA EC50. Format: cell-based, hepatitis B virus (HBV). In a few lines:
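Cytotoxicity run on replicate plates (5,000 cells/well, 4 days, ATP luminescence, CC50), while antiviral plates (50,000 cells/well) received compound for 7 days after tetracycline withdrawal to induce HBV replication. Top dose 25 μM, 8 points, 0.5% DMSO; rcDNA by branched-DNA assay, % inhibition fitted (4-parameter) for EC50 and EC90.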
On to `CCN(C(=O)Nc1ccc(F)c(C#N)c1)[C@@H]1COCc2[nH]c(=O)c3cc(F)c(F)cc3c21` (single isomer, unassigned) [Compound 138], for which the pEC50 was 8.00.

Take `CN(C(=O)Nc1ccc(F)c(Cl)c1)C1COC(O)c2[nH]c(=O)c3cc(F)c(F)cc3c21` (stereo not drawn) [Compound 151, 3-(3-Chloro-4-fluorophenyl)-1-(8,9-difluoro-4-hydroxy-6-oxo-1,4,5,6-tetrahydro-2H1-pyrano[3,4-c]isoquinolin-1-yl)-1-methylurea]: the pEC50 was 7.70.

As to `CN(C(=O)N1Cc2ccc(Br)cc2C1)[C@@H]1COCc2[nH]c(=O)c3cc(F)c(F)cc3c21` [Compound 220, (S)-5-Bromo-N-(8,9-difluoro-6-oxo-1,4,5,6-tetrahydro-2H-pyrano[3,4-c]isoquinolin-1-yl)-N-methylisoindoline-2-carboxamide], the pEC50 was 4.89.

With `CN(C(=O)Nc1ccc(F)c(Cl)c1)C1CCCc2[nH]c(=O)c3cc(F)cc(F)c3c21` (stereo not drawn) [Compound 20, 3-(3-Chloro-4-fluorophenyl)-1-(8,10-difluoro-6-oxo-1,2,3,4,5,6-hexahydrophenanthridin-1-yl)-1-methylurea], the pEC50 is 6.29.

Regarding `N#Cc1cc(NC(=O)N[C@@H]2COCc3[nH]c(=O)c4cc(F)c(F)cc4c32)ccc1F` (single isomer, unassigned) [Compound 135], the pEC50 is 7.30.

Turning to `CN(C(=O)Nc1ccc(F)c(Cl)c1)[C@@H]1COCc2c1c1cc(F)c(F)cc1c(=O)n2CCN` [Compound 257, (S)-1-(5-(2-Aminoethyl)-8,9-difluoro-6-oxo-1,4,5,6-tetrahydro-2H-pyrano[3,4-c]isoquinolin-1-yl)-3-(3-chloro-4-fluorophenyl)-1-methylurea], the negative-log EC50 (pEC50) is 5.51.

On to `CC(C)CN(C(=O)Nc1ccc(F)c(Cl)c1)C1CCc2[nH]c(=O)cc(C(F)(F)F)c21` (stereo not drawn) [Compound 4, 3-(3-Chloro-4-fluorophenyl)-1-isobutyl-1-(2-oxo-4-(trifluoromethyl)-2,5,6,7-tetrahydro-1H-cyclopenta[b]pyridin-5-yl)urea], for which the pEC50 was 6.04.

Still in this experiment, the particulars now being: inhibition of rcDNA formation in HepDE19 cells (HepG2 derived), Tet-free medium, 7 day incubation, Quantigene 2.0 bDNA readout, top concentration 25 μM; read-out: DE-19bDNA EC50.
For `CN(C(=O)Nc1ccc(F)c(C#N)c1)C1CN(CCO)Cc2[nH]c(=O)c3cc(F)ccc3c21` (single isomer, unassigned) [Compound 171, 3-(3-Cyano-4-fluorophenyl)-1-(8-fluoro-3-(2-hydroxyethyl)-6-oxo-1,2,3,4,5,6-hexahydrobenzo[c][1,7]naphthyridin-1-yl)-1-methylurea], the negative logarithm of the EC50 (pEC50) is 4.64.

Take `CN(C(=O)Nc1cc(F)c(F)c(Cl)c1)C1COCc2[nH]c(=O)c3cc(F)ccc3c21` (single isomer, unassigned) [Compound 107, 3-(3-Chloro-4,5-difluorophenyl)-1-(8-fluoro-6-oxo-1,4,5,6-tetrahydro-2H-pyrano[3,4-c]isoquinolin-1-yl)-1-methylurea]: the pEC50 is 6.03.

As for `CN(C(=O)Nc1cc(Cl)c(F)c(Cl)c1)C1COCc2[nH]c(=O)c3cc(F)ccc3c21` (single isomer, unassigned) [Compound 98, 3-(3,5-Dichloro-4-fluorophenyl)-1-(8-fluoro-6-oxo-1,4,5,6-tetrahydro-2H-pyrano[3,4-c]isoquinolin-1-yl)-1-methylurea], the pEC50 is 7.52.

Turning to `CN(C(=O)Nc1ccc(F)c(Cl)c1)C1CSCc2[nH]c(=O)c3cc(F)ccc3c21` (single isomer, unassigned) [Compound 184, 3-(3-Chloro-4-fluorophenyl)-1-(8-fluoro-6-oxo-1,4,5,6-tetrahydro-2H-thiopyrano[3,4-c]isoquinoIin-1-yl)-1-methylurea], the pEC50 was 7.52.

Consider `CN(C(=O)Nc1ccc(F)c(C#N)c1)C1CSCc2[nH]c(=O)c3cc(F)c(F)cc3c21` (single isomer, unassigned) [Compound 189, 3-(3-Cyano-4-fluorophenyl)-1-(8,9-difluoro-6-oxo-1,4,5,6-tetrahydro-2H-thiopyrano[3,4-c]isoquinolin-1-yl)-1-methylurea], for which the pEC50 is 6.06.
